Laboratory results published in US4782043A, “Renin inhibitors containing a C-terminal amide cycle” (Merck & Co., Inc., priority 1985, dated 1988).
Peptide text beside a SMILES is read from it.

Assays:
hog kidney renin = hog kidney renin (Sus scrofa, UniProt A0A287APG1); test: Hog renin inhibition; format: biochemical; details: pH 7.3, concentration producing 50% inhibition of renin activity, read-out: I50
Procedure: An assay was carried out in order to determine the inhibitory potency of the peptides of the present invention. The assay measured the inhibition of hog kidney renin, and was in accordance with the procedure described in Rich et al., J. Med. Chem. 23: 27, 1980, except that a pH of 7.3 was used. The results of the assay, illustrated in the table below, are expressed as I50 values, which refers to the concentration of peptide inhibitor necessary to produce 50% inhibition of renin activity. This I50 value is obtained typically by plotting data from four inhibitor concentrations. Pepstatin was used as an active control.

human kidney renin = molecular target: T1, human kidney renin (Homo sapiens, UniProt P00797); test: Human renin inhibition; format: biochemical; details: purified human kidney renin; dissociation constant of enzyme-inhibitor complex
T1 construct: human kidney renin purified as described in Bangham; from tissue; host or cells: human kidney
T1 sequence (P00797 67-406): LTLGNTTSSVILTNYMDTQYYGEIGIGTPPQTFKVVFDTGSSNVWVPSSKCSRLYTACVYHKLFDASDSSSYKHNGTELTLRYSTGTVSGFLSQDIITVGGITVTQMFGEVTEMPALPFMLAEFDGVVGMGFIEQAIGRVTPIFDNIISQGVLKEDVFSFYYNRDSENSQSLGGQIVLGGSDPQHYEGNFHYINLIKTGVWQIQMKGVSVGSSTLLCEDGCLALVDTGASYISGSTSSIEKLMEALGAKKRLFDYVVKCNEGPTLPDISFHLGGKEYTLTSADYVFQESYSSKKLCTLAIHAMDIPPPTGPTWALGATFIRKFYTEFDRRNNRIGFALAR
Procedure: An assay was carried out in order to determine the inhibitory potency of the peptides of the present invention. The assay measured the inhibition of human kidney renin purified as described in Bangham, D. R., Robertson, I., Robinson, J. I. S., Robinson, C. J., and Tree, M., Clinical Science and Molecular Medicine, 48 (Supp. 2): 136s-159s (1975), and further purified by affinity chromatography on pepstatin-aminohexyl-Sepharase as describe in Poe, M., Wu., J. K., Florance, J. R., Radkey, J. A., Bennett, C. D., and Hoagsteen, K., J. Biol. Chem. (1982, in press). The assay was also in accordance with Poe et al. cited above. Results are expressed as KI values, which refer to the dissociation constant of the inhibited enzyme-inhibitor complex. This KI value was obtained as described above. Pepstatin was used as an active control.

hog renin = details: nephrectomized rats after injection of hog renin (Gross et al. 1971); cited from earlier work

Sequence of hog kidney renin (A0A287APG1 67-407): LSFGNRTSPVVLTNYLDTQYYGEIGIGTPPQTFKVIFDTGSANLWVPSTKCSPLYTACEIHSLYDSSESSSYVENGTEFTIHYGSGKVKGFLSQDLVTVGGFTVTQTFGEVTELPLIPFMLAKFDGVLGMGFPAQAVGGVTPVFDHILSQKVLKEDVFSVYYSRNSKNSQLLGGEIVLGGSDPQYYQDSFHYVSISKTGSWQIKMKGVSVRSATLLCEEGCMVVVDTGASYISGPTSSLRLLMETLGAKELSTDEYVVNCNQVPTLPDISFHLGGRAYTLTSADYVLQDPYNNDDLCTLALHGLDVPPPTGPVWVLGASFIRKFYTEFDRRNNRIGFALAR

Compound	IC50 (hog kidney renin) [nM]	other results
CC(C)C[C@@H]1NC(=O)C[C@H](O)[C@H](CC(C)C)NC(=O)[C@@H](NC(=O)[C@H](Cc2ccccc2)NC(=O)[C@@H]2CCCN2C(=O)[C@H](Cc2c[nH]cn2)NC(=O)C(C)C)CCCCNC(=O)[C@H](Cc2ccccc2)NC1=O [drawing 31] (HELM PEPTIDE1{[CC(C)C(=O)[*:2]].H.P.F.K.[CC(C)C[C@H](N[*:1])[C@@H](O)CC(=O)[*:2]].L.F}$PEPTIDE1,PEPTIDE1,5:R3-8:R2$$$V2.0)	230	
CC(C)C[C@@H]1NC(=O)C[C@H](O)[C@H](CC(C)C)NC(=O)[C@@H](NC(=O)[C@H](Cc2ccccc2)NC(=O)[C@@H]2CCCN2C(=O)[C@H](Cc2c[nH]cn2)NC(=O)C(C)C)CCCCNC(=O)[C@H](Cc2ccccc2)NC1=O [drawing 39] (HELM PEPTIDE1{[CC(C)C(=O)[*:2]].H.P.F.K.[CC(C)C[C@H](N[*:1])[C@@H](O)CC(=O)[*:2]].L.F}$PEPTIDE1,PEPTIDE1,5:R3-8:R2$$$V2.0)		Ki (human kidney renin): 55 nM
CC(C)C[C@@H]1NC(=O)C[C@H](O)[C@H](Cc2ccccc2)NC(=O)[C@@H](NC(=O)C(CCCc2ccccc2)Cc2ccccc2)CCCCNC(=O)[C@H](Cc2ccccc2)NC1=O (single isomer, unassigned) [drawing 41]		Ki (human kidney renin): 190 nM
Pepstatin		blood pressure in vivo (hog renin): reduce blood pressure in vivo
CC(C)C[C@@H]1NC(=O)C[C@H](O)[C@H](CC(C)C)NC(=O)[C@@H](NC(=O)[C@H](Cc2ccccc2)NC(=O)OC(C)(C)C)CCCCNC(=O)[C@H](Cc2ccccc2)NC1=O [drawing 37] (HELM PEPTIDE1{[CC(C)(C)OC(=O)[*:2]].F.K.[CC(C)C[C@H](N[*:1])[C@@H](O)CC(=O)[*:2]].L.F}$PEPTIDE1,PEPTIDE1,3:R3-6:R2$$$V2.0)	450	
CC(C)C[C@@H]1NC(=O)C[C@H](O)[C@H](Cc2ccccc2)NC(=O)[C@@H](NC(=O)C(CCCc2ccccc2)Cc2ccccc2)CCCCNC(=O)[C@H](Cc2ccccc2)NC1=O (single isomer, unassigned) [drawing 38]	26	
CC(C)C[C@@H]1NC(=O)C[C@H](O)[C@H](CC(C)C)NC(=O)[C@@H](NC(=O)[C@H](Cc2ccccc2)NC(=O)OC(C)(C)C)CCCCNC(=O)[C@H](Cc2ccccc2)NC1=O [drawing 40] (HELM PEPTIDE1{[CC(C)(C)OC(=O)[*:2]].F.K.[CC(C)C[C@H](N[*:1])[C@@H](O)CC(=O)[*:2]].L.F}$PEPTIDE1,PEPTIDE1,3:R3-6:R2$$$V2.0)		Ki (human kidney renin): 64 nM

Second part, led by results:

IC50 (hog kidney renin) [nM]	Compound	other results
24000	CC(C)C[C@@H]1NC(=O)C[C@H](O)[C@H](CC(C)C)NC(=O)[C@@H](NC(=O)[C@H](Cc2ccccc2)NC(=O)[C@@H]2CCCN2C(=O)[C@H](Cc2c[nH]cn2)NC(=O)C(C)C)CCCNC(=O)[C@H](Cc2ccccc2)NC1=O (HELM PEPTIDE1{[CC(C)C(=O)[*:2]].H.P.F.[Orn].[CC(C)C[C@H](N[*:1])[C@@H](O)CC(=O)[*:2]].L.F}$PEPTIDE1,PEPTIDE1,5:R3-8:R2$$$V2.0)	
2800	CC(C)C[C@@H]1NC(=O)C[C@H](O)[C@H](CC(C)C)NC(=O)[C@@H](NC(=O)[C@H](Cc2ccccc2)NC(=O)[C@@H]2CCCN2C(=O)[C@H](Cc2c[nH]cn2)NC(=O)C(C)C)CCCNC(=O)CNC(=O)[C@H](Cc2ccccc2)NC1=O (HELM PEPTIDE1{[CC(C)C(=O)[*:2]].H.P.F.[Orn].[CC(C)C[C@H](N[*:1])[C@@H](O)CC(=O)[*:2]].L.F.G}$PEPTIDE1,PEPTIDE1,5:R3-9:R2$$$V2.0)	
1700	CC(C)C[C@@H]1NC(=O)C[C@H](O)[C@H](CC(C)C)NC(=O)[C@@H](NC(=O)[C@H](Cc2ccccc2)NC(=O)[C@@H]2CCCN2C(=O)[C@H](Cc2c[nH]cn2)NC(=O)C(C)C)CCCCNC(=O)CNC(=O)[C@H](Cc2ccccc2)NC1=O (HELM PEPTIDE1{[CC(C)C(=O)[*:2]].H.P.F.K.[CC(C)C[C@H](N[*:1])[C@@H](O)CC(=O)[*:2]].L.F.G}$PEPTIDE1,PEPTIDE1,5:R3-9:R2$$$V2.0)	
7100	CC(C)C[C@@H]1NC(=O)C[C@H](O)[C@H](CC(C)C)NC(=O)[C@@H](NC(=O)[C@H](Cc2ccccc2)NC(=O)[C@@H]2CCCN2C(=O)[C@H](Cc2c[nH]cn2)NC(=O)C(C)C)CCNC(=O)CNC(=O)[C@H](Cc2ccccc2)NC1=O (HELM PEPTIDE1{[CC(C)C(=O)[*:2]].H.P.F.[Dab].[CC(C)C[C@H](N[*:1])[C@@H](O)CC(=O)[*:2]].L.F.G}$PEPTIDE1,PEPTIDE1,5:R3-9:R2$$$V2.0)	
